According to patent US4160097A, “1-(2-Phenylureylene)imidazoles” (Westwind Pharmaceuticals, Inc., priority 1977, dated 1979):
In brackets after ≈: the same amount, converted by molar mass. Read-outs that look alike come from different tables or passages of the source.

Columns and labels:
[1] = tested on: carrageenan rat paw edema; assay: Rat Paw Edema Assay, Local Administration; format: in vivo; conditions: read-out: % Difference from Control; for change in vivo at 100 mg/kg: local administration
Protocol: (§1) The anti-inflammatory activity of representative compounds of this invention was determined by the rat paw edema assay both by local administration (Table XI below) and by oral dosing (Table XII below). For the oral dosing, the procedure of C. A. Winter, E. A. Risley and G. W. Nuss, Proc. Soc. Exp. Biol. Med. III, 544 (1962) was employed with measurement taken four hours after the drug was administered. The local administration tests were carried out similarly except the irritant (carrageenan) and the test compound were injected simultaneously at time zero.
(§2) Tables XI and XII report the anti-inflammatory activity of the compounds tested as % difference in the edema or swelling as compared with the control. These Tables also give the response in many instances of more than one dose level of the same drug.

[2] = tested on: carrageenan rat paw edema; assay: Rat Paw Edema Assay, Oral Dosing; format: in vivo; conditions: 4 h, four hours after drug, read-out: % Difference from Control; for change in vivo at 100 mg/kg: 100 mg/kg oral; for change in vivo at 400 mg/kg: 400 mg/kg oral
Protocol: as §1, §2

[3] = tested on: Trichophyton mentagrophytes; assay: Antifungal activity, agar dilution method; format: cell-based, Trichophyton mentagrophytes (ATCC No. 8757 and 9129); conditions: T. mentagrophytes, read-out: Parts Per Million Inhibitions of T. mentagrophytes
Protocol: (§3) various compounds of this invention display antifungal and anti-yeast activity.
(§4) In Table IX below are listed the antifungal activity of a number of compounds encompassed in the present invention. These were determined by the agar dilution method as described in Chapters 2 and 3 of Methods in Microbiology, Vol. 7B, edited by J. R. Norris and D. W. Ribbons, Academic Press, New York, 1972.

[4] = tested on: humeral or antibody response; assay: hemolysin test in mice; format: in vivo; conditions: Mus musculus, sc, dose reducing antibody activity by 50% vs control, read-out: HL(ED50)
[5] = tested on: Trichophyton ajelloi; assay: Antifungal activity, agar dilution method; format: cell-based; conditions: Arthroderma uncinatum, T. ajelloi, read-out: Parts Per Million Inhibitions of T. ajelloi
Protocol: as §3, §4

[6] = tested on: cell-mediated immune response to the antigen, Mycobacterium tuberculosis H37Ra; assay: delayed hypersensitivity test; format: in vivo, mouse; conditions: Mus musculus, sc, read-out: D.H.S. (ED60)
Protocol: The immunosuppressant activities of the compounds of this invention were determined via the hemolysin test in mice and by the delayed hypersensitivity test. The hemolysin test used is that described in Methods in Immunology, edited by D. H. Campbell et al, W. A. Benjamin, New York 1963 pages 172-175, and measures humeral or antibody response. The delayed hypersensitivity test measures the effect of a test compound on the ability of a subject mouse to mount a cell-mediated immune response to the antigen, Mycobacterium tuberculosis H37Ra. The mouse is sensitized to the antigen by subcutaneous administration in the base of the tail. The development of the delayed hypersensitivity response may be measured at any time beginning six days after sensitization but is usually done on the ninth day as follows: The right hind paw is injected with purified protein derivative (tuberculin) while the left hind paw (control) receives physiological saline. Both paw volumes are measured after twenty-four hours and significant increase in the volume of the right hand paw is taken as a measure of an effective delayed hypersensitivity response. All compounds were administered by the subcutaneous route.
The D.H.S. (ED60) mg./kg. s.c. value appearing in column 3 is an expression of the effectiveness of the drug in reducing the edema that accompanies the cell-mediated immune response. It is a measure of the number of milligrams per kilogram of body weight of the drug administered subcutaneously which is required to reduce the edema of the cell-mediated immune response by 60% when compared to the control.

[7] = tested on: Trichophyton rubrum; assay: Antifungal activity, agar dilution method; format: cell-based, Trichophyton rubrum (ATCC No. 10218 and 14001); conditions: T. rubrum, read-out: Parts Per Million Inhibitions of T. rubrum
Protocol: as §3, §4

[8] = mice, dose reducing edema of cell-mediated immune response by 60% vs control

SMILES	change in vivo at 100 mg/kg [2]	MIC [3]	MIC [5]	MIC [7]	other results
O=C(Nc1ccccc1-n1ccnc1)c1ccccc1Cl [Compound 49]	-35%	–	–	–	change in vivo at 100 mg/kg [1]: -35%
c1ccc(-c2ccc(-c3nc4ccccc4n4ccnc34)cc2)cc1 [Compound 135]	–	100 µg/mL (≈ 311 µM)	100 µg/mL (≈ 311 µM)	–	ED50 [4]: 0.033 mg/kg; ED60 [6, 8]: 0.22 mg/kg
Cc1ccc(-c2nc3ccccc3n3ccnc23)cc1 [Compound 134]	-43%	16 µg/mL (≈ 61.7 µM)	100 µg/mL (≈ 386 µM)	–	ED50 [4]: 0.5 mg/kg; ED60 [6, 8]: 7.2 mg/kg
c1ccc2c(c1)nc(C1CCC1)c1nccn12 [Compound 128]	-39%	–	–	16 µg/mL (≈ 71.7 µM)	–
CCCCCCCCCCCCCCCc1nc2ccccc2n2ccnc12 [Compound 119]	–	–	–	8 µg/mL (≈ 21.1 µM)	–
Cc1ccccc1C(=O)Nc1ccccc1-n1ccnc1 [Compound 35]	-50%	16 µg/mL (≈ 57.7 µM)	100 µg/mL (≈ 361 µM)	–	–
CC(C)(C)c1ccc(-c2nc3ccccc3n3ccnc23)cc1 [Compound 137]	-26%	100 µg/mL (≈ 332 µM)	100 µg/mL (≈ 332 µM)	–	ED50 [4]: < 0.125 mg/kg; ED60 [6, 8]: 3.2 mg/kg
COc1cccc(Nc2nc3ccccc3n3ccnc23)c1 [Compound 185]	–	100 µg/mL (≈ 344 µM)	100 µg/mL (≈ 344 µM)	100 µg/mL (≈ 344 µM)	–
CCCCNc1nc2ccccc2n2ccnc12 [Compound 168]	–	100 µg/mL (≈ 416 µM)	100 µg/mL (≈ 416 µM)	100 µg/mL (≈ 416 µM)	–
CCCCCCCCCc1nc2ccccc2n2ccnc12 [Compound 118]	–	256 µg/mL (≈ 867 µM)	–	4 µg/mL (≈ 13.5 µM)	ED50 [4]: > 50 mg/kg; ED60 [6, 8]: 43 mg/kg
O=C(Nc1ccccc1-n1ccnc1)c1ccc2ccccc2c1 [Compound 62]	–	100 µg/mL (≈ 319 µM)	100 µg/mL (≈ 319 µM)	100 µg/mL (≈ 319 µM)	–
CCCCCCCc1nc2ccccc2n2ccnc12 [Compound 116]	104%	16 µg/mL (≈ 59.8 µM)	–	16 µg/mL (≈ 59.8 µM)	ED50 [4]: > 50 mg/kg; change in vivo at 400 mg/kg [2]: -18%; ED60 [6, 8]: 56 mg/kg
Fc1ccccc1-c1nc2ccccc2n2ccnc12 [Compound 173]	–	100 µg/mL (≈ 380 µM)	100 µg/mL (≈ 380 µM)	100 µg/mL (≈ 380 µM)	ED60 [6, 8]: 40 mg/kg
c1ccc(OCc2nc3ccccc3n3ccnc23)cc1 [Compound 126]	–	100 µg/mL (≈ 363 µM)	100 µg/mL (≈ 363 µM)	100 µg/mL (≈ 363 µM)	ED50 [4]: 35 mg/kg; ED60 [6, 8]: > 50 mg/kg
CCCCCCCCCC(=O)Oc1ccc(-c2nc3ccccc3n3ccnc23)cc1 [Compound 165]	–	100 µg/mL (≈ 241 µM)	100 µg/mL (≈ 241 µM)	100 µg/mL (≈ 241 µM)	–
O=[N+]([O-])c1ccccc1Nc1nc2ccccc2n2ccnc12 [Compound 187]	–	–	100 µg/mL (≈ 328 µM)	100 µg/mL (≈ 328 µM)	–
O=C(Nc1ccccc1-n1ccnc1)c1cccc(Br)c1 [Compound 59]	–	–	–	100 µg/mL (≈ 292 µM)	–
Fc1ccc(Nc2nc3ccccc3n3ccnc23)cc1 [Compound 182]	–	–	–	100 µg/mL (≈ 359 µM)	ED50 [4]: 1.1 mg/kg
Clc1cccc(Nc2nc3ccccc3n3ccnc23)c1 [Compound 179]	–	100 µg/mL (≈ 339 µM)	100 µg/mL (≈ 339 µM)	100 µg/mL (≈ 339 µM)	–
CCCCCCC(=O)Nc1ccccc1-n1ccnc1 [Compound 7]	-52%	–	–	–	change in vivo at 100 mg/kg [1]: -22%
CCCCCCCC(=O)Nc1ccccc1-n1ccnc1 [Compound 8]	-22%	8 µg/mL (≈ 28 µM)	–	8 µg/mL (≈ 28 µM)	change in vivo at 400 mg/kg [2]: -13%
FC(F)(F)c1nc2ccccc2n2ccnc12 [Compound 122]	-61%	–	–	32 µg/mL (≈ 135 µM)	change in vivo at 100 mg/kg [1]: -61%
CCCCCCCCCCCCCCCCCc1nc2ccccc2n2ccnc12 [Compound 120]	–	–	–	1 µg/mL (≈ 2.45 µM)	–
C=CCCCCCCCCC(=O)Nc1ccccc1-n1ccnc1 [Compound 16]	–	4 µg/mL (≈ 12.3 µM)	–	2 µg/mL (≈ 6.15 µM)	–

SMILES	change in vivo at 100 mg/kg [2]	MIC [3]	MIC [5]	MIC [7]	other results
O=C(C=Cc1ccccc1)Nc1ccccc1-n1ccnc1 [Compound 20]	-59%	100 µg/mL (≈ 346 µM)	100 µg/mL (≈ 346 µM)	–	–
O=C(Nc1ccccc1-n1ccnc1)c1ccc(Cl)cc1 [Compound 51]	-57%	–	–	–	change in vivo at 100 mg/kg [1]: -57%
COc1ccc(-c2nc3ccccc3n3ccnc23)cc1 [Compound 138]	–	100 µg/mL (≈ 363 µM)	100 µg/mL (≈ 363 µM)	–	ED50 [4]: 0.72 mg/kg; ED60 [6, 8]: 27 mg/kg
C(=Cc1nc2ccccc2n2ccnc12)c1ccccc1 [Compound 127]	–	16 µg/mL (≈ 59 µM)	–	16 µg/mL (≈ 59 µM)	ED50 [4]: > 50 mg/kg; ED60 [6, 8]: 36 mg/kg
CCCCCCCCCC(=O)Nc1ccccc1-n1ccnc1 [Compound 10]	-30%	16 µg/mL (≈ 51 µM)	–	16 µg/mL (≈ 51 µM)	–
COc1ccccc1C(=O)Nc1ccccc1-n1ccnc1 [Compound 58]	–	100 µg/mL (≈ 341 µM)	100 µg/mL (≈ 341 µM)	100 µg/mL (≈ 341 µM)	–
CC(=O)Oc1ccc(-c2nc3ccccc3n3ccnc23)cc1 [Compound 163]	–	100 µg/mL (≈ 330 µM)	100 µg/mL (≈ 330 µM)	100 µg/mL (≈ 330 µM)	–
CCCC(=O)Oc1ccc(-c2nc3ccccc3n3ccnc23)cc1 [Compound 164]	–	100 µg/mL (≈ 302 µM)	100 µg/mL (≈ 302 µM)	100 µg/mL (≈ 302 µM)	–
CCCCCCCCC(=O)Nc1ccccc1-n1ccnc1 [Compound 9]	–	16 µg/mL (≈ 53.4 µM)	–	16 µg/mL (≈ 53.4 µM)	–
Brc1ccccc1-c1nc2ccccc2n2ccnc12 [Compound 145]	–	100 µg/mL (≈ 308 µM)	100 µg/mL (≈ 308 µM)	100 µg/mL (≈ 308 µM)	–
c1ccc2c(c1)nc(NC1CCCCC1)c1nccn12 [Compound 167]	–	100 µg/mL (≈ 375 µM)	100 µg/mL (≈ 375 µM)	100 µg/mL (≈ 375 µM)	–
CCCc1nc2ccccc2n2ccnc12 [Compound 112]	-17%	128 µg/mL (≈ 606 µM)	–	64 µg/mL (≈ 303 µM)	change in vivo at 400 mg/kg [2]: -68%
C=CCCCCCCCCc1nc2ccccc2n2ccnc12 [Compound 123]	0%	–	–	2 µg/mL (≈ 6.51 µM)	change in vivo at 400 mg/kg [2]: -50%
O=[N+]([O-])c1ccc(-c2nc3ccccc3n3ccnc23)cc1 [Compound 151]	–	–	–	1 µg/mL (≈ 3.44 µM)	ED50 [4]: 0.3 mg/kg; ED60 [6, 8]: 1.52 mg/kg
CCCNc1nc2ccccc2n2ccnc12 [Compound 169]	–	100 µg/mL (≈ 442 µM)	100 µg/mL (≈ 442 µM)	100 µg/mL (≈ 442 µM)	ED50 [4]: 46 mg/kg; ED60 [6]: > 50 mg/kg
O=C(O)c1ccccc1-c1nc2ccccc2n2ccnc12 [Compound 148]	-52%	–	–	–	change in vivo at 0.001 mg ([1]; 1 μg, injected directly into paw): -32.6%; change in vivo at 0.01 mg ([1]; 10 μg, injected directly into paw): -53.5%; change in vivo at 0.1 mg ([1]; 100 μg, injected directly into paw): -14.3%; change in vivo at 100 mg/kg [1]: -39%
COc1ccc(Nc2nc3ccccc3n3ccnc23)cc1 [Compound 186]	–	100 µg/mL (≈ 344 µM)	100 µg/mL (≈ 344 µM)	100 µg/mL (≈ 344 µM)	–
Cc1ccccc1-c1nc2ccccc2n2ccnc12 [Compound 132]	-76%	100 µg/mL (≈ 386 µM)	100 µg/mL (≈ 386 µM)	–	–
O=[N+]([O-])c1ccc(Nc2nc3ccccc3n3ccnc23)cc1 [Compound 189]	–	–	100 µg/mL (≈ 328 µM)	100 µg/mL (≈ 328 µM)	–
COc1cccc(-c2nc3ccccc3n3ccnc23)c1 [Compound 159]	–	100 µg/mL (≈ 363 µM)	100 µg/mL (≈ 363 µM)	100 µg/mL (≈ 363 µM)	ED50 [4]: 3 mg/kg; ED60 [6, 8]: 27 mg/kg
CC(C)(C)c1ccc(C(=O)Nc2ccccc2-n2ccnc2)cc1 [Compound 39]	-50%	100 µg/mL (≈ 313 µM)	100 µg/mL (≈ 313 µM)	–	–
COc1ccccc1Nc1nc2ccccc2n2ccnc12 [Compound 184]	–	100 µg/mL (≈ 344 µM)	100 µg/mL (≈ 344 µM)	100 µg/mL (≈ 344 µM)	–
c1ccc2c(-c3nc4ccccc4n4ccnc34)cccc2c1 [Compound 160]	–	100 µg/mL (≈ 339 µM)	100 µg/mL (≈ 339 µM)	100 µg/mL (≈ 339 µM)	–
c1ccc2c(c1)nc(C1CCCCC1)c1nccn12 [Compound 129]	-30%	16 µg/mL (≈ 63.7 µM)	16 µg/mL (≈ 63.7 µM)	8 µg/mL (≈ 31.8 µM)	–
